The values that follow come from US20120065198A2, “Detection and Treatment of Schizophrenia” (Tokai University Educational System, priority 2007, published 2012).

The assay relates to pentosidine formation. The experiment in a line: Inhibitory activity on pentosidine formation, samples incubated with BSA and arabinose. The assay is classed as biochemical. The settings on record: 5 mM drug; incubated with BSA and arabinose instead of patient plasma. The procedure:
Plasma was collected from hemodialysis patients prior to dialysis with the patients' consent, and the plasma was filtered and sterilized. To the plasma (450 μL) was added solutions of TM-2002 in dimethylsulfoxide (50 μL) (final concentrations: 0.8, 2.0, and 5.0 mM), and the mixtures were incubated for 1 week at 37° C. The levels of the pentosidine formation were measured.
Pentosidine was measured as follows. To each sample (50 μL) after incubation was added an equal volume of 10% trichloroacetic acid, and the mixture was subsequently centrifuged at 5,000 g for 5 minutes. After the supernatant was removed, the pellet was washed with 5% trichloroacetic acid (300 μL). The pellet was dried under reduced pressure, and subsequently hydrolyzed in a 6N HCl solution (100 μL) under a nitrogen atmosphere for 16 hours at 110° C. To the acid hydrolysate was then added 5N NaOH (100 μL) and 0.5 M phosphate buffer (pH 7.4) (200 μL); the mixture was subsequently filtered through a micropore filter with 0.5 μm pores and diluted with PBS. The concentration of the released pentosidine was measured by reverse-phase HPLC using a fluorescence detector (RF-10A, Shimadzu Corporation) (Miyata, T. et al.; Proc. Natl. Acad. Sci. USA, Vol. 93, p. 2353-2358, 1996). The effluent was monitored at the excitation/emission wavelength of 335/385 nm. Synthetic pentosidine was used as the reference material. The detection limit of pentosidine was 0.1 pmol/mg protein.
(2) Other edaravone analogues (Compounds (1) or (2)) were investigated for their inhibitory activities on pentosidine formation in the same manner as in Section (1) above, except that the samples were incubated with BSA and arabinose instead of the patient plasma. In the tables, “-” means that the test was not conducted.

For `CC1=NN(c2ccccc2)C(=O)C1(N1CCOCC1)N1CCOCC1` [compound 26, 5-methyl-4,4-dimorpholine-4-yl-2-phenyl-2,4-dihydro-pyrazol-3-one], the “Pentosidine Formation Ratio (%) at 5 mM Drug Concentration” value (from here on “Pentosidine Formation Ratio (%)”) came out at 50.68%.

On to `O=C(NC1=NN(c2ccccc2)C(=O)C1(O)S(=O)(=O)[O-])c1ccccc1.[Na+]` (stereo not shown) [compound 27, Sodium 3-benzoylamino-4-hydroxy-5-oxo-1-phenyl-4,5-dihydro-1H-pyrazole-4-sulfonate], for which the “Pentosidine Formation Ratio (%)” value is given as 2.83%.

In the case of `CC1=NN(c2ccccc2)C(=O)C12Sc1ccccc1C2=O` (stereo not shown) [compound 28], the “Pentosidine Formation Ratio (%)” value worked out at 22.83%. As for `CC1=NN(c2ccccc2)C(=O)C12C(c1ccccc1)C21C(=O)N(c2ccccc2)N=C1C` (stereo not shown) [compound 30, 4,10-dimethyl-2,8,11-triphenyl-2,3,8,9-tetraza-dispiro[4.0.4.1]undeca-3,9-diene-1,7-dione], the figure is 62.43%; as for `CC1=NN(c2ccccc2Cl)C(=O)/C1=C/c1ccc(O)c(OCO)c1` [compound 31], 15.57%; as for `CC1=NN(c2ccccc2Cl)C(=O)/C1=C/c1ccc(N(C)C)cc1` [compound 32, 2-(2-chloro-phenyl)-4-(4-dimethylamino-benzylidene)-5-methyl-2,4-dihydro-pyrazol-3-one], 8.7%. The same measure for `CC1=NN(c2cccc(C(F)(F)F)c2)C(=O)/C1=C/C=C/c1ccccc1` [compound 33]: 80.08%. Turning to `CC1=NN(c2cccc(F)c2)C(=O)/C1=C\c1ccc(N(C)C)cc1` [compound 35, 4-(4-dimethylamino-benzylidene)-2-(3-fluoro-phenyl)-5-methyl-2,4-dihydro-pyrazol-3-one], the “Pentosidine Formation Ratio (%)” value is 76.31%. For the compound `CC1=NN(c2cccc(C(=O)O)c2)C(=O)/C1=C\c1ccc(N2CCC(Cl)=N2)cc1` [compound 36, 3-{4-[4-(3-chloro-4,5-dihydro-pyrazol-1-yl)-benzylidene]-3-methyl-5-oxo-4,5-dihydro-pyrazol-1-yl}-benzoic acid], the “Pentosidine Formation Ratio (%)” value is 26.37%. `O=C(O)c1cccc(N2N=C(c3ccccc3)/C(=C/c3ccccc3O)C2=O)c1` [compound 37]: the “Pentosidine Formation Ratio (%)” value worked out at 0.02%.

Turning to `CC1=NN(c2cccc(Cl)c2)C(=O)/C1=C/c1cc2ccccc2[nH]c1=O` [compound 38, 3-[1-(3-chloro-phenyl)-3-methyl-5-oxo-1,5-dihydro-pyrazol-4-ylidenemethyl]-1H-quinolin-2-one], the “Pentosidine Formation Ratio (%)” value turned out to be 84.95%.

For `COC(=O)c1cccc(-c2ccc(/C=C3\C(=O)N(c4ccc(S(C)(=O)=O)cc4)N=C3C)o2)c1` [compound 39], the “Pentosidine Formation Ratio (%)” value was determined as 16.87%. For `COC(=O)c1ccc(N2N=C(C)/C(=C/c3ccc4c(c3)OCO4)C2=O)cc1` [compound 40, 4-(4-benzo[1,3]dioxol-5-ylmethylene-3-methyl-5-oxo-4,5-dihydro-pyrazol-1-yl)-benzoic acid methyl ester], the “Pentosidine Formation Ratio (%)” value came to 32.37%. As for `COC(=O)c1ccc(N2N=C(C)/C(=C/c3ccc(-c4ccc(S(N)(=O)=O)cc4)o3)C2=O)cc1` [compound 41, 4-{3-methyl-5-oxo-4-[5-(4-sulfamoyl-phenyl)-furan-2-ylmethylene]-4,5-dihydro-pyrazol-1-yl}-benzoic acid methyl ester], the figure is 37.81%.

For the compound `CC1=NN(c2ccc(Cl)cc2)C(=O)/C1=C/c1ccc(O)cc1O` [compound 42, 2-(4-chloro-phenyl)-4-(2,4-dihydroxy-benzylidene)-5-methyl-2,4-dihydro-pyrazol-3-one], the “Pentosidine Formation Ratio (%)” value was found to be 68.32%. For the compound `CC1=NN(c2ccc(Cl)cc2)C(=O)/C1=C/c1cccc(O)c1` [compound 43, 2-(4-chloro-phenyl)-4-(3-hydroxy-benzylidene)-5-methyl-2,4-dihydropyrazol-3-one], the “Pentosidine Formation Ratio (%)” value came out at 3.00%.
